Results: publication PMC2841792 (Journal of medicinal chemistry, 2010)
“Also recorded” adds a separate entry of the source. Counter-ions that a name gives are not always drawn. Like-named read-outs stand apart in the source and are kept apart here.

Columns and labels:
neuron = conditions: not told; cited from earlier work
BoNT/A LC [1] = target: T1, BoNT/A LC (Clostridium botulinum, UniProt P0DPI0); assay: biochemical; format: biochemical
BoNT/B LC = BoNT/B LC (Clostridium botulinum, UniProt P10844); format: biochemical
BoNT/B LC, sequence (P10844 2-441 limits assumed): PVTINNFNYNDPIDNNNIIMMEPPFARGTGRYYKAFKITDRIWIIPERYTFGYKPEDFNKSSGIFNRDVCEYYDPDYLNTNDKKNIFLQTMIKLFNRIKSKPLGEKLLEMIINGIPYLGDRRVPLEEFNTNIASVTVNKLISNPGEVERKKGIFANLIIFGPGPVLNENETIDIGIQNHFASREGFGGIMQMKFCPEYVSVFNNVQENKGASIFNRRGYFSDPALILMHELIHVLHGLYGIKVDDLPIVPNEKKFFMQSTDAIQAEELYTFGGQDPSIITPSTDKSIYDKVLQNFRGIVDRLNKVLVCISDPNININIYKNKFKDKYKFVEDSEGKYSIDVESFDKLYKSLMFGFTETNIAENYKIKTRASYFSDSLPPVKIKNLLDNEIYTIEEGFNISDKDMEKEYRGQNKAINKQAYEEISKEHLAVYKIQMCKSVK

human MMP-1 = target: T2, human MMP-1 (Homo sapiens, UniProt P03956); format: biochemical
T2 sequence (P03956 100-469): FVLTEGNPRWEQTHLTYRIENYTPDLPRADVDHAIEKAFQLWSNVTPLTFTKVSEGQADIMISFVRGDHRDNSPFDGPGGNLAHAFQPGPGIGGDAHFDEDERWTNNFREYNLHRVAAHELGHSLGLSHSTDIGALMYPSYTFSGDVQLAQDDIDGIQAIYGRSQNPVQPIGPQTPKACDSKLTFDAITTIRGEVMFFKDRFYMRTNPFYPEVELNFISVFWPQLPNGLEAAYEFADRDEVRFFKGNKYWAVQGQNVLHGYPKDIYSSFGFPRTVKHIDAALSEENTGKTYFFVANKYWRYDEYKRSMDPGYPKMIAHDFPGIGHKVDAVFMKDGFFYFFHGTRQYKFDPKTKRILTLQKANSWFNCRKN

MMP-9 = MMP-9 (Homo sapiens, UniProt P14780); format: biochemical
MMP-9, sequence (P14780 94-707): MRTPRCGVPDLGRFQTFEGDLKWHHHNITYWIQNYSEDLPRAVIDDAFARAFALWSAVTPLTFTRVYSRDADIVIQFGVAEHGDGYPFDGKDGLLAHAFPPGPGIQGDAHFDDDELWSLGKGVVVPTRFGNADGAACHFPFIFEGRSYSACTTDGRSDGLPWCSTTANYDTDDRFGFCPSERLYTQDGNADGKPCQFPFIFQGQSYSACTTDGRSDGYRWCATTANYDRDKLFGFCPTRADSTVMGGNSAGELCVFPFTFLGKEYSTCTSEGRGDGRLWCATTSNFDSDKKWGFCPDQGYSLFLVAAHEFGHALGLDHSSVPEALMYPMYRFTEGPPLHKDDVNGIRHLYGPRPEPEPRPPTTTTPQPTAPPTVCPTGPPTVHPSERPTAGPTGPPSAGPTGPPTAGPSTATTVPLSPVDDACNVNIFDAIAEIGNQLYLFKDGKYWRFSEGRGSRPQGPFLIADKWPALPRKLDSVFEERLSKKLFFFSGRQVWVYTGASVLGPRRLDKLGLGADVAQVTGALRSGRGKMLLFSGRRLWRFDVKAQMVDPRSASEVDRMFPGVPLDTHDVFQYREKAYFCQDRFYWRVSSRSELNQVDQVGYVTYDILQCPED

chick neuronal assay = format: cell-based
[2] = target: anthrax lethal factor (LF) (Bacillus anthracis, UniProt P15917); assay: biochemical
anthrax lethal factor (LF), sequence (P15917 34-809 limits assumed): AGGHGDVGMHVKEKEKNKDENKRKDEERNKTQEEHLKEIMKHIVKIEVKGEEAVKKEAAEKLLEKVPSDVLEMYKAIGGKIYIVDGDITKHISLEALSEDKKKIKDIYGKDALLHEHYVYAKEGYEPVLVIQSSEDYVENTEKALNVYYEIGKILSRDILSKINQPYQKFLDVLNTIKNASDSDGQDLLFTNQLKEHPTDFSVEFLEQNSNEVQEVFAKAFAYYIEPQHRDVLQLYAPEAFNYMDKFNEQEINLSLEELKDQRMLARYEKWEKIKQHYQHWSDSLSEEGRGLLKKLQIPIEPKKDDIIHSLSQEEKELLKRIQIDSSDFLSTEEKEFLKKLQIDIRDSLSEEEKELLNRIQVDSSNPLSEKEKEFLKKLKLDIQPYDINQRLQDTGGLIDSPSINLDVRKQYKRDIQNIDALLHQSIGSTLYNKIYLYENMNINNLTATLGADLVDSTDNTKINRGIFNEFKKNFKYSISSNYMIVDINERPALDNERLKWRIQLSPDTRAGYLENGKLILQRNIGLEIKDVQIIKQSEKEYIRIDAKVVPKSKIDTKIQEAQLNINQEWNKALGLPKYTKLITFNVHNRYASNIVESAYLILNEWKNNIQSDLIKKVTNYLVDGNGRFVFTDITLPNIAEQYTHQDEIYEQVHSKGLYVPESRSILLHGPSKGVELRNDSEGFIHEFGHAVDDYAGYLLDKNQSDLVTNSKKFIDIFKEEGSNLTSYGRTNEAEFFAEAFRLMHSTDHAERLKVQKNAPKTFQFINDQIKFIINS

BoNT/A LC [3] = target: T1, BoNT/A LC; assay: biochemical

T1 sequence (P0DPI0 2-448 limits assumed): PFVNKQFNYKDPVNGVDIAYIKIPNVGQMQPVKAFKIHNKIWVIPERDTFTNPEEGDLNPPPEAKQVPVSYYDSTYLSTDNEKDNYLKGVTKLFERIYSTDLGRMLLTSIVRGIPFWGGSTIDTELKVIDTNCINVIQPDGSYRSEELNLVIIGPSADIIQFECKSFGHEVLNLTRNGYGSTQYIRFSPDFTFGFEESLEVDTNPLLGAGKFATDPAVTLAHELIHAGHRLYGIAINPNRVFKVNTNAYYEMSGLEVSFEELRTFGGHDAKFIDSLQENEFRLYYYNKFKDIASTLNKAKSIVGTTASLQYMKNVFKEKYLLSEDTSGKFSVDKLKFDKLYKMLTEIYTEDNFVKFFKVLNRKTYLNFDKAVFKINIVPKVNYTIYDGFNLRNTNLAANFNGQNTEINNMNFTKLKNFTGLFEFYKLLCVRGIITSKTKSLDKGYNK

For `Cl.Cl.N=C(N)c1ccc(Oc2ccc(-c3cc4ccc(C(=N)N)cc4[nH]3)cc2)cc1` [Compound 5], the neuron permeability (neuron) is listed as “neuron-permeable”.

In the case of `N#Cc1ccc(Oc2ccc(-c3cc4ccc(C(=N)N)cc4[nH]3)cc2)cc1` [Compound 11, 2-(4-(4-Cyanophenoxy)phenyl)-1H-indole-6-carboximidamide hydrochloride salt], the “inhibitory activity against BoNT/A LC (in words)” value (“inhibitory activity … (in words)” for short) (BoNT/A LC [1]) is reported as “no activity”.

In the case of `CN(C)CC/N=C(\N)c1ccc(Oc2ccc(-c3cc4ccc(/C(N)=N/CCN(C)C)cc4[nH]3)cc2)cc1` [Compound 12], the “dependence of inhibitory activity on Zn concentration” value (BoNT/A LC [1]) is reported as “independent of the Zn concentration”, the “fold more potent than the lead structure (compound 5) against BoNT/A LC” value (BoNT/A LC [1]) is reported as 4.4 fold and the “inhibitory activity against BoNT/B” value (BoNT/B LC) is reported as “no inhibitory activities; also recorded: does not inhibit”. The “inhibitory activity against human MMP-1” value (human MMP-1) was “no inhibitory activities; also recorded: does not inhibit”, the “inhibitory activity against MMP-9” value (MMP-9) was “no inhibitory activities; also recorded: does not inhibit” and the “cellular activity in a chick neuronal assay” value (chick neuronal assay) was “showed cellular activity”.

In the case of `OC1CN=C(c2ccc(Oc3ccc(-c4cc5ccc(C6=NCC(O)CN6)cc5[nH]4)cc3)cc2)NC1` (stereo not drawn) [Compound 15, 2-(4-(4-(6-(5-Hydroxy-1,4,5,6-tetrahydropyrimidin-2-yl)-1H-indol-2-yl)phenoxy)phenyl)-1,4,5,6-tetrahydropyrimidin-5-ol], the “selectivity for BoNT/A LC versus anthrax LF” value (BoNT/A LC [1]) is reported as “over ten-fold”.

For `N#Cc1ccc(Oc2ccc(-c3cc4ccc(C5=NCCN5)cc4[nH]3)cc2)c(Cl)c1` [Compound 24c, 2-(4-(2-Chloro-4-cyanophenoxy)phenyl)-6-(4,5-dihydro-1H-imidazol-2-yl)indole], the “fold less potent than bis-imidazoline 13 against BoNT/A LC” value (BoNT/A LC [1]) was 2.4 fold and the “inhibitory activity … (in words)” value (BoNT/A LC [1]) was “maintain inhibitory activity”.

In the case of `Clc1ccc(Oc2ccc(-c3cc4ccc(C5=NCCN5)cc4[nH]3)cc2)c(Cl)c1` [Compound 29, 2-(4-(2,4-Dichlorophenoxy)phenyl)-6-(4,5-dihydro-1H-imidazol-2-yl)-1H-indole], the “inhibitory activity … (in words)” value (BoNT/A LC [1]) is reported as “maintain inhibitory activity”.

With `N#Cc1ccc2cc(-c3ccc(F)cc3)[nH]c2c1` [Compound 39, 2-(4-Fluorophenyl)-1H-indole-6-carbonitrile] the IC50 (BoNT/A LC [1]) was over 100 µM and the IC50 [2] was over 100 µM.

For `NC(=O)c1ccc2cc(-c3ccc(F)cc3)[nH]c2c1` [Compound 40a, 2-(4-Fluorophenyl)-1H-indole-6-carboxamide], the IC50 (BoNT/A LC [1]) was over 100 µM and the IC50 [2] was over 100 µM.

Work on `N=C(N)c1ccc2cc(-c3ccc(F)cc3)[nH]c2c1` [Compound 40b, 2-(4-Fluorophenyl)-1H-indole-6-carboximidamide] yielded an IC50 (BoNT/A LC [1]) of over 100 µM and an IC50 [2] of 48 µM.

Work on `Fc1ccc(-c2cc3ccc(C4=NCCN4)cc3[nH]2)cc1` [Compound 40c, 6-(4,5-Dihydro-1H-imidazol-2-yl)-2-(4-fluorophenyl)-1H-indole] yielded an IC50 (BoNT/A LC [1]) of over 100 µM and an IC50 [2] of 40 µM.

`COc1ccc(-c2cc3ccc(C(N)=O)cc3[nH]2)cc1` [Compound 43a, 2-(4-Methoxyphenyl)-1H-indole-6-carboxamide] gave an IC50 (BoNT/A LC [1]) of over 100 µM and an IC50 [2] of over 100 µM.

With `COc1ccc(-c2cc3ccc(C(=N)N)cc3[nH]2)cc1` [Compound 43b, 2-(4-Methoxyphenyl)-1H-indole-6-carboximidamide] the IC50 (BoNT/A LC [1]) was over 100 µM and the IC50 [2] was over 100 µM.

`COc1ccc(-c2cc3ccc(C4=NCCN4)cc3[nH]2)cc1` [Compound 43c, 2-(4-Methoxyphenyl)-6-(4,5-dihydro-1H-imidazol-2-yl)-1H-indole] showed an IC50 (BoNT/A LC [1]) of 45 µM and an IC50 [2] of 61 µM.

In the case of `c1cc(-c2cc3ccc(C4=NCCN4)cc3[nH]2)ccc1C1=NCCN1` [Compound 44a, 6-(4,5-Dihydro-1H-imidazol-2-yl)-2-(4-(4,5-dihydro-1H-imidazol-2-yl)phenyl)-1H-indole], the “inhibitory activity against BoNT/B” value (BoNT/B LC) is reported as “no inhibitory activities”, the “inhibitory activity against human MMP-1” value (human MMP-1) is reported as “no inhibitory activities” and the “inhibitory activity against MMP-9” value (MMP-9) is reported as “no inhibitory activities”.

`c1cc(-c2cc3ccc(C4=NCCN4)cc3s2)ccc1C1=NCCN1` [Compound 46a, 2-(4-(6-(4,5-Dihydro-1H-imidazol-2-yl)benzo[b]thiophen-2-yl)phenyl)-4,5-dihydro-1H-imidazole] showed an IC50 (BoNT/A LC [3]) of 28 µM.

For `NC(=O)c1ccc2cc(-c3ccc(F)cn3)sc2c1` [Compound 49, 2-(5-Fluoro-2-pyridyl)-6-benzo[b]thiophenecarboxamide], the IC50 (BoNT/A LC [1]) was over 100 µM and the IC50 [2] was over 100 µM.

For `NCCNc1ccc(-c2cc3ccc(C4=NCCN4)cc3s2)nc1` [Compound 50, N^1–(6-(6-(4,5-Dihydro-1H-imidazol-2-yl)benzo[b]thiophen-2-yl)pyridine-3-yl)ethane-1,2-diamine], the IC50 [2] was over 100 µM.
